Test results from US10053417B2, “Neprilysin inhibitors” (THERAVANCE BIOPHARMA R&D IP, LLC, priority 2013, dated 2018).

Biological target: T1, human NEP (Homo sapiens, UniProt P08473)
T1 construct: purchased R&D Systems, Minneapolis, Minn; 1182-ZN
Assay: In vitro enzyme inhibition assay, inhibitor potency at human NEP (Assay 1)
Format: biochemical
Details: recombinant human NEP; fluorogenic peptide substrate 10 μM; 37° C.; values given as ranges
How it was run: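 Recombinant human NEP pre-incubated 30 min at 37 °C with compound ([…]), then 10 μM Mca-D-Arg-Arg-Leu-Dap-(Dnp)-OH added in 50 mM HEPES pH 7.5, 100 mM NaCl, 0.01% Tween-20, 10 μM ZnSO4; stopped after 20 min with acetic acid. Fluorescence ex 320/em 405 nm; Ki from nonlinear regression, reported as pKi.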

T1 sequence (P08473 52-750 limits assumed): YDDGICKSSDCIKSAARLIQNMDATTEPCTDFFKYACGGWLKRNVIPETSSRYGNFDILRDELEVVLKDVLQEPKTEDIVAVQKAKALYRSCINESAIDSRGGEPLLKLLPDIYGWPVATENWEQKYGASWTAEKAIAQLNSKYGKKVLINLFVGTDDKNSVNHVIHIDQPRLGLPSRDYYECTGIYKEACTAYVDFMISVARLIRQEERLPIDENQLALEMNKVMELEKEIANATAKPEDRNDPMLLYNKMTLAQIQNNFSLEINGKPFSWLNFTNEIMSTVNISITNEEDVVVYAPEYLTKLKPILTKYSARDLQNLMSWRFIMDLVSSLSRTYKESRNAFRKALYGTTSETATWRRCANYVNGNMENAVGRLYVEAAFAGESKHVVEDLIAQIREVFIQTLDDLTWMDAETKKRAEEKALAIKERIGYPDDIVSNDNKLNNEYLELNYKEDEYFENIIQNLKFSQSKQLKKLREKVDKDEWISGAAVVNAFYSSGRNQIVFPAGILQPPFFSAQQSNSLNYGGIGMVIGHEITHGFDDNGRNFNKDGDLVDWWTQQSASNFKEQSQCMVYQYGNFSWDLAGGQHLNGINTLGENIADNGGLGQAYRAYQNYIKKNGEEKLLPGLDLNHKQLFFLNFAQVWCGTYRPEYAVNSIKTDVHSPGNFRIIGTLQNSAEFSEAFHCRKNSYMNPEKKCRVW

Ki [nM] | SMILES
1 to 10 | O=C(CO)N[C@H](Cc1ccc(-c2cccc(Cl)c2)cc1)C[C@@H](O)C(=O)O [Example 10-1, (2R,4R)-5-(3′-Chlorobiphenyl-4-yl)-2-hydroxy-4-(2-hydroxyacetylamino)-pentanoic acid]
10 to 31.6 | O=C(N[C@H](Cc1ccc(-c2cccc(Cl)c2)cc1)C[C@@H](O)C(=O)O)C(=O)N1CC(F)(F)C1 [Example 4-14, (2R,4R)-5-(3′-Chlorobiphenyl-4-yl)-4-[2-(3,3-difluoroazetidin-1-yl)-2-oxo-acetylamino]-2-hydroxypentanoic acid]
1 to 10 | O=C(NNc1ccccc1Cl)C(=O)N[C@H](Cc1ccc(-c2cccc(Cl)c2)cc1)C[C@@H](O)C(=O)O [Example 6-7, (2R,4R)-5-(3′-Chlorobiphenyl-4-yl)-4-{[N′-(2-chloro-phenyl)-hydrazinooxalyl]-amino}-2-hydroxypentanoic acid]
1 to 10 | O=C(N[C@H](Cc1ccc(-c2cccc(Cl)c2)cc1)C[C@@H](O)C(=O)O)C(=O)N1CCC(C(=O)O)CC1 [Example 4-27, 1-[(1R,3R)-3-Carboxy-1-(3′-chlorobiphenyl-4-ylmethyl)-3-hydroxypropyl-aminooxalyl]-piperidine-4-carboxylic acid]
1 to 10 | CON(C)C(=O)C(=O)N[C@H](Cc1ccc(-c2cccc(Cl)c2)cc1)C[C@@H](O)C(=O)O [Example 4-12, (2R,4R)-5-(3′-Chlorobiphenyl-4-yl)-2-hydroxy-4-[(methoxymethylaminooxalyl)-amino]pentanoic acid]
1 to 10 | COc1ccc(NNC(=O)C(=O)N[C@H](Cc2ccc(-c3cccc(Cl)c3)cc2)C[C@@H](O)C(=O)O)cc1 [Example 6-15, (2R,4R)-5-(3′-Chlorobiphenyl-4-yl)-2-hydroxy-4-{[N′-(4-methoxyphenyl)-hydrazinooxalyl]amino}pentanoic acid]
10 to 31.6 | NC(=O)C1CCN(C(=O)C(=O)N[C@H](Cc2ccc(-c3cccc(Cl)c3)cc2)C[C@@H](O)C(=O)O)C1 (stereo partly drawn) [Example 4-17, (2R,4R)-4-[2-(3-Carbamoylpyrrolidin-1-yl)-2-oxo-acetylamino]-5-(3′-chloro-biphenyl-4-yl)-2-hydroxypentanoic acid]
1 to 10 | O=C(NNc1ccccc1)C(=O)N[C@H](Cc1ccc(-c2cccc(Cl)c2)cc1)C[C@@H](O)C(=O)O [Example 6-17, (2R,4R)-5-(3′-Chlorobiphenyl-4-yl)-2-hydroxy-4-[(N′-phenylhydrazinooxalyl)-amino]pentanoic acid]
≤ 1 | O=C(NNC(=O)c1ccccc1O)C(=O)N[C@H](Cc1ccc(-c2cccc(Cl)c2)cc1)C[C@@H](O)C(=O)O [Example 7, (2R,4R)-5-(3′-Chlorobiphenyl-4-yl)-2-hydroxy-4-{2-[N′-(2-hydroxybenzoyl)hydrazino]-2-oxo-acetylamino}pentanoic Acid]
10 to 31.6 | O=C(N[C@H](Cc1ccc(-c2cccc(Cl)c2)cc1)C[C@@H](O)C(=O)O)C(=O)N1CCC(c2ccncc2)CC1 [Example 4-23, (2R,4R)-5-(3′-Chlorobiphenyl-4-yl)-2-hydroxy-4-[2-oxo-2-(3,4,5,6-tetrahydro-2H-[4,4′]bipyridinyl-1-yl)-acetylamino]pentanoic acid]
10 to 31.6 | N#CC1CCCN(C(=O)C(=O)N[C@H](Cc2ccc(-c3cccc(Cl)c3)cc2)C[C@@H](O)C(=O)O)C1 (stereo partly drawn) [Example 4-30, (2R,4R)-5-(3′-Chlorobiphenyl-4-yl)-4-[2-(3-cyanopiperidin-1-yl)-2-oxo-acetylamino]-2-hydroxypentanoic acid]
1 to 10 | O=C(N[C@H](Cc1ccc(-c2cccc(Cl)c2)cc1)C[C@@H](O)C(=O)O)C(=O)N1CCOC(CO)C1 (stereo partly drawn) [Example 4-43, (2R,4R)-5-(3′-Chlorobiphenyl-4-yl)-2-hydroxy-4-[2-(2-hydroxymethyl-morpholin-4-yl)-2-oxo-acetylamino]pentanoic acid]
≤ 1 | O=C(N[C@H](Cc1ccc(-c2cccc(Cl)c2)cc1)C[C@@H](O)C(=O)O)C(=O)N1CCC[C@H]1CO [Example 3, (2R,4R)-5-(3′-Chlorobiphenyl-4-yl)-2-hydroxy-4-[2-((S)-2-hydroxymethylpyrrolidin-1-yl)-2-oxo-acetylamino]pentanoic Acid]
